Assay results reported in patent US20140213445A1, “Use of Pesticidal Active 3-Arylquinazolin-4-One Derivatives in Soil Application Methods” (BASF SE, priority 2011, published 2014).

Experiments:
[1] = tested on: 2-Spotted Spider Mite (Tetranychus urticae); experiment: Test B.1.1 Foliar assay 2-spotted spider mite on Sieva lima bean plants; type: in vivo; settings: 120 h, test solution 100 ppm, infested lima bean plants dipped, counts after 5 days, read-out: mortality in comparison with untreated controls
Experimental: The active compounds were formulated in 50:50 (vol:vol) acetone:water and 100 ppm Kinetica™ surfactant.
At about 2 hours before treatment Sieva lima bean plants with primary leaves expanded to 7-12 cm were infested by placing on each a small piece from an infested leaf (with about 100 mites) taken from the main colony in order to allow the mites to move over to the test plant to lay eggs. The piece of leaf used to transfer the mites was removed. The newly-infested plants were dipped in the test solution and allowed to dry. The test plants were kept under fluorescent light (24 hour photoperiod) at about 25° C. and about 20-40% relative humidity. After 5 days mortality counts were made.

[2] = tested on: Kanzawa Spider Mite (Tetranychus kanzawai); experiment: Test B.1.2 Foliar assay Kanzawa spider mite on potted cotton plants; type: in vivo; settings: cotton plants sprayed, assessed after 24, 72 and 120 hours, read-out: mortality in comparison with untreated controls
[3] = tested on: root-knot nematode (Meliodogyne spp.) juveniles; experiment: Test B.2.1 Tomato soil drench against root-knot nematode juveniles; type: in vivo; settings: soil drench 0.75 mg active ingredient/plant, galls counted at 14 DAT
Experimental: Tomatoes were grown in potting soil until the approximate first true leaf stage (about 2 weeks after planting). Tomatoes were transplanted into play sand. Seven days after transplant, technical material of test compound was dissolved in acetone, and then water was added to achieve a final concentration of 50% acetone. 1 mL of solution was pipetted onto the tomato root zone. One day after treatment (DAT), each pot was infested with about 500 root-knot nematode (Meliodogyne spp.) juveniles in 1 ml distilled water. Immediately after infestation, plants were placed in the greenhouse. Plants were top watered and fertilized daily. At 14 DAT, the tomato roots were rinsed off, and the number of galls was counted. Replication was 5-times.

[4] = tested on: two spotted spider mites; experiment: Test B.1.4 Seed treatment assay in cotton; type: in vivo; settings: cotton seed coated 0.5 mg active ingredient/seed, assessed 4 days after release of mites
[5] = tested on: two spotted spider mites; experiment: Test B.1.5 Seed treatment assay in cucumber; type: in vivo; settings: cucumber seed coated 0.5 mg active ingredient/seed, assessed 4 days after release of mites
Experimental: Test solution comprising a compound of the present invention is prepared at desired concentration using water and acetone as organic solvent. Cucumber seeds are coated with such prepared test solution applied at the rate of 0.5 mg active ingredient/seed and sown to the pots. After plant emergence (eleven days after treatment & planting), a mixed population of two spotted spider mites is released onto the leaves.
Four days after the release of spider mites, the acaricidal efficacy is measured by means of the rating of the damage caused by spider mites.
Percent damage as lesions was visually assessed, and means were calculated for each treatment. Mean percent damage reduction relative to the solvent blank was calculated as 100−(mean % lesions in treatment/mean % lesions in Solvent blank)*100.

[6] = tested on: two spotted spider mites (Tetranychus urticae); settings: soil drench 4 mg active ingredient/plant, mites released 4 days after treatment, assessed 5 days after release

Row | SMILES | mortality at 100 ppm [1] | mortality at 100 ppm [2] | mean percent reduction of galls in comparison with untreated controls [3] | mean percent damage reduction in the cotyledon stage [4] | mean percent damage reduction in the cotyledon stage [5] | mean percent damage reduction in comparison with untreated controls [6]
1 | Cc1cc(F)c(-n2cnc3ccc(F)cc3c2=O)cc1SCC(F)(F)F [CE.I.30, 6-Fluoro-3-[2-fluoro-4-methyl-5-2(2,2,2-trifluoroethylsulfanyl)-phenyl]-3H-quinazolin-4-one] | ≥ 70% |  |  |  |  | 
2 | Cc1cc(F)c(-n2cnc3ccc(F)cc3c2=O)cc1[S+]([O-])CC(F)(F)F (centres unmarked) [CE.I.31, 6-Fluoro-3-[2-fluoro-4-methyl-5-2(2,2,2-trifluoroethanesulfinyl)-phenyl]-3H-quinazolin-4-one] | ≥ 70% | ≥ 70% | at least 90% |  |  | 
3 | Cc1cc(F)c(-n2cnc3ccc(OC(F)(F)F)cc3c2=O)cc1SCC(F)(F)F [CE.I.32, 6-Trifluoromethoxy-3-[2-fluoro-4-methyl-5-2(2,2,2-trifluoroethylsulfanyl)-phenyl]-3H-quinazolin-4-one] | ≥ 70% |  |  |  |  | 
4 | Cc1cc(F)c(-n2cnc3ccc(OC(F)(F)F)cc3c2=O)cc1[S+]([O-])CC(F)(F)F (centres unmarked) [CE.I.33, 6-Trifluormethoxy-3-[2-fluoro-4-methyl-5-2(2,2,2-trifluoroethanesulfinyl)-phenyl]-3H-quinazolin-4-one] | ≥ 70% | ≥ 70% |  |  |  | 
5 | Cc1cc(F)c(-n2cnc3ccccc3c2=O)cc1SCC(F)(F)F [CE.I.34, 2-(2,2,2-trifluoroethylsufanyl)-4-(4-oxo-quinazolin-3-yl)-5-fluoro-toluol] | ≥ 70% | ≥ 70% |  |  |  | 
6 | Cc1cc(F)c(-n2cnc3ccccc3c2=O)cc1[S+]([O-])CC(F)(F)F (centres unmarked) [CE.I.35, 2-(2,2,2-trifluoroethylsufinyl)-4-(4-oxo-quinazolin-3-yl)-5-fluoro-toluol] | ≥ 70% | ≥ 70% |  | at least 90% | at least 50% | at least 70%
